According to patent US20230165867A1 (CHENGDU BAIYU PHARMACEUTICAL CO., LTD., priority 2020, published 2023):
Like-named read-outs stand apart in the source and are kept apart here.

Legend:
[1] = Metabolic stability in liver microsomes; format: in vitro ADME, human; settings: 0.5 µM test substance, 0.5 mg/mL microsomes, NADPH and UDPGA, 37° C.; for half-life at 0.5 µM: human, human liver microsomes, read-out: T½(min), stability in human liver microsomes
Description: Liver microsomes (purchased from Reed Liver Disease Research (Shanghai) Co., Ltd., product: human liver microsomes (NJT)); NADPH (purchased from Roche, Lot: 40939); UDPGA; the compounds of the present invention (test substances).
• (1) A mixed working solution of testosterone (0.5 µM) and 7-hydroxycoumarin (0.5 µM) was prepared. • (2) A mixed solution of NADPH (1 mM) and UDPGA (1 mM) was prepared, and prewarmed at 37° C. in a water bath shaker before use. • (3) Liver microsomes were thawed and diluted with a buffer. • (4) A preparation of a test substance (0.5 µM) and a solution of liver microsomes (0.5 mg/mL) were added to each well of an incubation plate. • (5) Three experimental groups were set and samples were added. Test group: the test substance was incubated with liver microsomes for 0 min, 30 min, 60 min, and 120 min in the presence of the coenzyme NADPH and UDPGA; Positive control group: testosterone (0.5 µM) and 7-hydroxycoumarin (0.5 µM) were incubated with microsomes for 0 min and 120 min in the presence of the coenzyme NADPH and UDPGA; Negative control group: the test substance was incubated with microsomes for 0 and 120 min without any coenzyme. • (6) All samples were incubated at 37° C., and pre-cooled methanol was added at each termination time (0, 15, 30, 45, 60 min, 120 min) to terminate the reaction, and the time was recorded. • (7) All samples were mixed well and centrifuged at 4000 rpm for 10 min. The supernatant was taken and measured by LC-MS/MS for the amount of the test substance remaining in the samples. Data analysis was carried out as follows: T½=0.693 /k, Clint = (0.693/T½) × (1 /(microsomal protein) × Scaling Factors), Note: k is the slope of the logarithm of the remaining amounts of compound versus time.

[2] = Pharmacokinetic assay in ICR mice (i.v. and p.o.); format: in vivo; settings: mouse, plasma, male ICR mice; for half-life: read-out: T½ (converted); for bioavailability: po 10 mg/kg vs iv 1 mg/kg
Description: ICR mice were purchased from Beijing Vital River Laboratory Animal Technology Co., Ltd.
3.2 Experimental procedure • (1) Healthy male ICR mice (18-22 g) were prepared, with 18 mice for each compound. The mice were divided into 2 groups (an i.v. group and a p.o. group), with 9 mice per group. 3 mice were picked for blood collection at each time point. • (2) After the animals were fasted overnight (with free access to water), the compound of the present invention dissolved (or suspended) in a solvent of 5% DMSO and 95% 30% HP-β-CD (v:v) was administered via the tail vein (i.v., 1 mg/kg) or intragastrically (p.o., 10 mg/kg), respectively. • (3) For the i.v. group, 0.1 mL blood was collected from the submandibular vein 5 min, 15 min, 0.5 h, 1 h, 2 h, 4 h, 8 h, 12 h, and 24 h after administration, respectively, anticoagulated with EDTA-K2, and centrifuged at 4° C. for 5 min to obtain plasma, which was stored at -20° C. until testing. (4) For the p.o. group, 0.1 mL blood was collected from the submandibular vein before administration and 15 min, 0.5 h, 1 h, 2 h, 4 h, 6 h, 8 h, 12 h, and 24 h after administration, and treated in the same manner as that for the intravenous group. • (5) The concentration of the compound of the present invention in plasma was measured by LC/MS/MS. • (6) Calculation and fitting were performed with Analyst 1.6 from AB Company, and the results are shown in Table 3.

DNA-PK kinase = target: T1, DNA-PK kinase (Homo sapiens, UniProt P78527); assay: Inhibition assay of DNA-PK kinase (Promega kit, ADP-Glo chemiluminescence); format: biochemical; settings: 50 µM ATP, 37° C., 60 min; read-out: IC50 (nM), inhibitory activity on DNA-PK kinase
T1 construct: purchased Promega V4107
Description: The inhibitory activity of the compounds on DNA-PK kinase was measured by using a DNA-PK kinase assay kit (purchased from Promega, Cat.#: V4107, Lot: 0000366495). The results were quantified by chemiluminescence, and the detailed experimental protocol was as follows: • i. An ADP-fluorescence standard curve over a range of concentrations was plotted according to the kit instructions; • ii. […] The mixtures were mixed well, centrifuged (1000 rpm, 30 s), and incubated at 37° C. for 60 min; • iv. 5 µL of ADP-Glo™ Reagent was added to stop the reaction, which was then mixed well, centrifuged (1000 rpm, 30 s), and incubated at room temperature for 40 min; • v. 10 µL Kinase Detection Reagent was added, and the mixture was mixed well by shaking, centrifuged (1000 rpm, 30 s), and incubated at room temperature for 30 min; • vi. The […] was measured by using a microplate reader (Thermo fisher, Varioskan LUX).

Row | half-life at 0.5 µM [1] | IC50 (DNA-PK kinase) | other results | Structure (SMILES)
1 | > 120 min |  | AUC ([2]; iv, 1 mg/kg): 1700 ng·h/mL; half-life ([2]; iv, 1 mg/kg): 2.92 h; bioavailability [2]: 166%; AUC ([2]; po, 10 mg/kg): 28200 ng·h/mL; Cmax ([2]; po, 10 mg/kg): 4680 ng/mL; half-life ([2]; po, 10 mg/kg): 2.58 h | Cc1cc(C(N)=O)c(F)cc1Nc1ncc2c(n1)n([C@H]1CC[C@@](C)(O)CC1)c(=O)n2C [Compound 72, 2-Fluoro-4-((9-(cis-4-hydroxy-4-methylcyclohexyl)-7-methyl-8-oxo-8,9-dihydro-7H-purin-2-yl)amino)-5-methylbenzamide]
2 | > 120 min |  |  | Cc1cc(C(N)=O)c(F)cc1Nc1ncc2c(n1)n(C1CCC(C)(C#N)CC1)c(=O)n2C (single isomer, unassigned) [Compound 92-1, 4-((9-(4-cyano-4-methylcyclohexyl)-7-methyl-8-oxo-8,9-dihydro-7H-purin-2-yl)amino)-2-fluoro-5-methylbenzamide]
3 | > 120 min |  |  | [2H]C([2H])([2H])c1cc(C#N)ccc1Nc1ncc2c(n1)n(C1CCOCC1)c(=O)n2C (single isomer, unassigned) [Compound 25, 3-(Methyl-d3)-4-((7-methyl-8-oxo-9-(tetrahydro-2H-pyran-4-yl)-8,9-dihydro-7H-purin-2-yl)amino)benzonitrile]
4 | > 120 min | 1.25 nM |  | Cc1cc(C(N)=O)c(F)cc1Nc1ncc2c(n1)n(C1CCCOC1)c(=O)n2C (centres unmarked) [Compound 69, 2-fluoro-5-methyl-4-((7-methyl-8-oxo-9-(tetrahydro-2H-pyran-3-yl)-8,9-dihydro-7H-purin-2-yl)amino)benzamide]
5 |  | 4.17 nM | AUC ([2]; iv, 1 mg/kg): 1190 ng·h/mL; half-life ([2]; iv, 1 mg/kg): 1.69 h; bioavailability [2]: 44.8%; AUC ([2]; po, 10 mg/kg): 4720 ng·h/mL; Cmax ([2]; po, 10 mg/kg): 1850 ng/mL; half-life ([2]; po, 10 mg/kg): 3.01 h | CCn1c(=O)n(C2CCOCC2)c2nc(Nc3cc(F)c(C(N)=O)cc3C)ncc21 [Compound 62, 4-((7-ethyl-8-oxo-9-(tetrahydro-2H-pyran-4-yl)-8,9-dihydro-7H-purin-2-yl)amino)-2-fluoro-5-methylbenzamide]
6 | > 120 min | 1.96 nM |  | Cc1cc(C(N)=O)c(C(F)(F)F)cc1Nc1ncc2c(n1)n(C1CCOCC1)c(=O)n2C [Compound 48, 5-Methyl-4-((7-methyl-8-oxo-9-(tetrahydro-2H-pyran-4-yl)-8,9-dihydro-7H-purin-2-yl)amino)-2-(trifluoromethyl)benzamide]
7 |  | 0.038 nM | AUC ([2]; iv, 1 mg/kg): 216 ng·h/mL; half-life ([2]; iv, 1 mg/kg): 1.17 h; bioavailability [2]: 65.2%; AUC ([2]; po, 10 mg/kg): 1200 ng·h/mL; Cmax ([2]; po, 10 mg/kg): 446 ng/mL; half-life ([2]; po, 10 mg/kg): 3.5 h | Cc1cc(C#N)ccc1Nc1ncc2c(n1)n([C@H]1CC[C@@H](C#N)CC1)c(=O)n2C [Compound 78, 4-((9-(cis-4-cyanocyclohexyl)-7-methyl-8-oxo-8,9-dihydro-7H-purin-2-yl)amino)-3-methylbenzonitrile]
8 | > 120 min | 0.75 nM |  | Cc1cc(C(N)=O)c(F)cc1Nc1ncc2c(n1)n([C@H]1C[C@H](O)C1)c(=O)n2C [Compound 93, 2-Fluoro-4-((9-(trans-3-hydroxycyclobutyl)-7-methyl-8-oxo-8,9-dihydro-7H-purin-2-yl)amino)-5-methylbenzamide]
9 | > 120 min | 47.1 nM |  | Cc1cc(C(N)=O)c(F)cc1Nc1ncc2c(n1)n(C1CCNCC1)c(=O)n2C [Compound 81, 2-Fluoro-5-methyl-4-((7-methyl-8-oxo-9-(piperidin-4-yl)-8,9-dihydro-7H-purin-2-yl)amino)benzamide]
10 | > 120 min | 24.5 nM |  | Cc1cc(C(N)=O)c(F)cc1Nc1ncc2c(n1)n(C1CCN(C)CC1)c(=O)n2C [Compound 82, 2-Fluoro-5-methyl-4-((7-methyl-9-(1-methylpiperidin-4-yl)-8-oxo-8,9-dihydro-7H-purin-2-yl)amino)benzamide]
11 | > 120 min | 1.1 nM |  | Cc1cc(C(N)=O)c(F)cc1Nc1ncc2c(n1)n(C1CC3CCC(C1)O3)c(=O)n2C (centres unmarked) [Compound 85, 4-((9-(8-oxabicyclo[3.2.1]octan-3-yl)-7-methyl-8-oxo-8,9-dihydro-7H-purin-2-yl)amino)-2-fluoro-5-methylbenzamide]
12 | > 120 min | 1.1 nM |  | [2H]C([2H])([2H])c1cc(C(N)=O)c(F)cc1Nc1ncc2c(n1)n(C1CCOCC1)c(=O)n2C [Compound 44, 2-Fluoro-5-(methyl-d3)-4-((7-methyl-8-oxo-9-(tetrahydro-2H-pyran-4-yl)-8,9-dihydro-7H-purin-2-yl)amino)benzamide]
13 | > 120 min | 0.43 nM |  | Cc1cc(C(N)=O)c(F)cc1Nc1ncc2c(n1)n(C1CCC(F)(F)CC1)c(=O)n2C [Compound 83, 4-((9-(4,4-difluorocyclohexyl)-7-methyl-8-oxo-8,9-dihydro-7H-purin-2-yl)amino)-2-fluoro-5-methylbenzamide]
14 | > 120 min | 5.7 nM |  | [2H]C([2H])([2H])NC(=O)c1cc(C)c(Nc2ncc3c(n2)n(C2CCOCC2)c(=O)n3C)cn1 [Compound 39, 4-Methyl-N-(methyl-d3)-5-((7-methyl-8-oxo-9-(tetrahydro-2H-pyran-4-yl)-8,9-dihydro-7H-purin-2-yl)amino)picolinamide]
15 |  |  | T½(min), stability in human liver microsomes [1]: >120 min | Cc1cc(C(N)=O)c(F)cc1Nc1ncc2c(n1)n(C1CCC(C)(C#N)CC1)c(=O)n2C (single isomer, unassigned) [Compound 92-2, 4-((9-(4-cyano-4-methylcyclohexyl)-7-methyl-8-oxo-8,9-dihydro-7H-purin-2-yl)amino)-2-fluoro-5-methylbenzamide]
16 | > 120 min | 0.32 nM |  | CCOc1cc(Nc2ncc3c(n2)n(C2CCOCC2)c(=O)n3C)c(C)cc1C(N)=O [Compound 53, 2-Ethoxy-5-methyl-4-((7-methyl-8-oxo-9-(tetrahydro-2H-pyran-4-yl)-8,9-dihydro-7H-purin-2-yl)amino)benzamide]
17 | > 120 min |  | AUC ([2]; iv, 1 mg/kg): 239 ng·h/mL; half-life ([2]; iv, 1 mg/kg): 1.24 h; bioavailability [2]: 56%; AUC ([2]; po, 10 mg/kg): 1270 ng·h/mL; Cmax ([2]; po, 10 mg/kg): 484 ng/mL; half-life ([2]; po, 10 mg/kg): 2.5 h | Cc1cc(C(N)=O)c(F)cc1Nc1ncc2c(n1)n([C@H]1CC[C@](C)(O)CC1)c(=O)n2C [Compound 73, 2-Fluoro-4-((9-(trans-4-hydroxy-4-methylcyclohexyl)-7-methyl-8-oxo-8,9-dihydro-7H-purin-2-yl)amino)-5-methylbenzamide]
18 |  | 31 nM |  | Cc1cc(C(=O)NC2CC2)ccc1Nc1ncc2c(n1)n(C1CCOCC1)c(=O)n2C [Compound 31, N-Cyclopropyl-3-methyl-4-((7-methyl-8-oxo-9-(tetrahydro-2H-pyran-4-yl)-8,9-dihydro-7H-purin-2-yl)amino)benzamide]
19 |  | 1.36 nM |  | COC(=O)c1cc(Nc2ncc3c(n2)n(C2CCOCC2)c(=O)n3C)c(C)s1 [Compound 22]
